Legend:
ULK1 kinase = biological target: T1, ULK1 kinase (Homo sapiens, UniProt O75385, E37A/K38A); test: Biochemical assay for ULK1.3 (coupled pyruvate kinase/lactate dehydrogenase assay); details: 0.1 nM ULK1 (residues 1-283), peptide substrate, 1 mM ATP
T1 construct: (residues 1-283; ID NO: 2); purchased Beryllium
T1 sequence (O75385 1-283 E37A/K38A): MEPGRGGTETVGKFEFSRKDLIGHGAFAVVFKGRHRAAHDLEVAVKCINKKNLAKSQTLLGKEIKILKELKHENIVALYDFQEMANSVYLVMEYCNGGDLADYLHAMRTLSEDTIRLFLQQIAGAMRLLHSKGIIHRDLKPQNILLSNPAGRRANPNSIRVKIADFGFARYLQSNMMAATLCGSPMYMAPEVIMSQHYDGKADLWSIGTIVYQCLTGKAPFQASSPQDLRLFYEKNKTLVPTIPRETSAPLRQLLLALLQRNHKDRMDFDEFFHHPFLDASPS
Method: Activity of ULK1 kinase was determined spectroscopically using a coupled pyruvate kinase/lactate dehydrogenase assay that continuously monitors the ATP hydrolysis-dependent oxidation of NADH (e.g., Schindler et al. Science (2000) 289: 1938-1942). Assays were conducted in 384-well plates (100 uL final volume) using 0.1 nM ULK1 (from Beryllium), 0.075 mM peptide substrate (YANWLAASIYLDGKKK (SEQ ID NO: 5)), 1.5 units pyruvate kinase, 2.1 units lactate dehydrogenase, 1 mM phosphoenol pyruvate, 0.28 mM NADH and 1 mM ATP in assay buffer (100 mM Tris, pH 7.5, 15 mM MgCl2, 0.5 mM DTT, 0.004% (w/v) BSA, and 0.004% Triton X-100). Inhibition of ULK1 was measured by adding serial diluted test compound (final assay concentration of 1% DMSO). A decrease in absorption at 340 nm was monitored continuously for 6 hours at 30° C. on a multi-mode microplate reader (BioTek). The reaction rate was calculated using the 2-3 h time frame. The reaction rate at each concentration of compound was converted to percent inhibition using controls (i.e. reaction with no test compound and reaction with a known inhibitor) and IC50 values were calculated using software routines in Prism (GraphPad software).

[1] = tested on: ULK kinase substrate ATG13 (phospho-Serine 318 ATG13) in MiaPaCa-2 cells; test: pATG13 ELISA in mutant KRas MiaPaCa-2 cells in combination with trametinib; assay type: cell-based; details: MiaPaCa-2 human pancreatic cancer cells, with 250 nM trametinib, overnight
Method: MiaPaCa-2 human pancreatic cancer cells (10000 cells/well) were added to a 384-well tissue-culture treated plate in 50 μL of pre-warmed DMEM medium supplemented with 10% characterized fetal bovine serum (Invitrogen, Carlsbad, Calif.), 100 units/mL penicillin G, 100 μg/mL streptomycin, and 2.5% Horse Serum and allowed to grow overnight at 37° C., 5% CO2, and 95% humidity. The following day, 10 μL of media containing trametinib or DMSO as a control was added to wells. The final concentration of trametinib in wells was 250 nM. A dose response of a test compound (0.6 μL per well) was added. DMSO (0.6 μL) was added to control wells. The plate was briefly shaken to mix wells and then incubated at 37° C. overnight. The next day, the media was aspirated and cells were washed with Dulbecco's Phosphate Buffered Saline (Gibco). Cells were lysed using MPER lysis buffer (Pierce, Rockford, Ill.) containing Halt Phosphatase and Protease Inhibitors (Pierce, Rockford, Ill.) and Phosphatase inhibitor cocktail 2 (Sigma, St. Louis, Mo.) at 4° C. for 10 minutes with shaking.
Cellular levels of phospho-Serine 318 ATG13 (pATG13) were measured via an ELISA method. Total ATG13 Antibody (Cell Signaling Cat #13273) was used to coat the wells. The plate was incubated at 4° C. overnight and washed with ELISA wash buffer (Biolegend Cat #421601). The wells were then blocked with assay diluent (Biolegend Cat #421203) for 1 hour at room temperature. Plate wells were washed with ELISA wash buffer. Cell lysate was added to wells and incubated at room temperature for 2 hours. Plate wells were washed with ELISA wash buffer. Biotinylated pS318-ATG13 antibody (Rockland Immunochemicals Cat #600-401-C49) was diluted in assay diluent and added to each well and incubated at room temperature for 1 hour. Plate wells were washed with ELISA wash buffer. Streptavidin linked to horseradish peroxidase (Thermo Fisher Cat #21140) was diluted in assay diluent and added to each well and incubated at room temperature for 1 hour. Plate wells were washed with ELISA wash buffer. High sensitivity TMB substrate (Biolegend Cat #421101) was added to each well and incubated at room temperature for 20 minutes. The reaction was stopped with 2N Sulfuric Acid. The plate was analyzed at on a plate reader measuring absorbance at 450 nm and 540 nm (background). Signal was calculated by first subtracting the background absorbance at 540 nm from the absorbance at 450 nm for each well. Next, the background corrected absorbance at 450 nm from blank wells was subtracted from test wells. Data was compared to control wells to determine % ATG13 phosphorylation. GraphPad Prism was used to calculate IC50 values.

ULK2 kinase = biological target: T2, ULK2 kinase (Homo sapiens, UniProt Q8IYT8); test: Biochemical assay for ULK2 (coupled pyruvate kinase/lactate dehydrogenase assay); details: 9.7 nM ULK2 (residues 1-306), myelin basic protein substrate, 1 mM ATP; read-out: ULK2.2
T2 construct: purchased Eurofins 14-772
Method: Activity of ULK2 kinase was determined spectroscopically using a coupled pyruvate kinase/lactate dehydrogenase assay that continuously monitors the ATP hydrolysis-dependent oxidation of NADH (e.g., Schindler et al. Science (2000) 289: 1938-1942). Assays were conducted in 384-well plates (100 uL final volume) using 9.7 nM ULK2 (Eurofins CAT #14-772), 0.25 mg/mL myelin basic protein, 1.5 units pyruvate kinase, 2.1 units lactate dehydrogenase, 1 mM phosphoenol pyruvate, 0.28 mM NADH and 1 mM ATP in assay buffer (100 mM Tris, pH 7.5, 15 mM MgCl2, 0.5 mM DTT, 0.1% octyl-glucoside, 0.002% (w/v) BSA, and 0.002% Triton X-100). Inhibition of ULK2 was measured by adding serial diluted test compound (final assay concentration of 1% DMSO). A decrease in absorption at 340 nm was monitored continuously for 6 hours at 30° C. on a multi-mode microplate reader (BioTek). The reaction rate was calculated using the 2-3 h time frame. The reaction rate at each concentration of compound was converted to percent inhibition using controls (i.e. reaction with no test compound and reaction with a known inhibitor) and IC50 values were calculated by fitting a four-parameter sigmoidal curve to the data using Prism (GraphPad software).

T2 sequence (Q8IYT8 with tags, fused parts or gaps): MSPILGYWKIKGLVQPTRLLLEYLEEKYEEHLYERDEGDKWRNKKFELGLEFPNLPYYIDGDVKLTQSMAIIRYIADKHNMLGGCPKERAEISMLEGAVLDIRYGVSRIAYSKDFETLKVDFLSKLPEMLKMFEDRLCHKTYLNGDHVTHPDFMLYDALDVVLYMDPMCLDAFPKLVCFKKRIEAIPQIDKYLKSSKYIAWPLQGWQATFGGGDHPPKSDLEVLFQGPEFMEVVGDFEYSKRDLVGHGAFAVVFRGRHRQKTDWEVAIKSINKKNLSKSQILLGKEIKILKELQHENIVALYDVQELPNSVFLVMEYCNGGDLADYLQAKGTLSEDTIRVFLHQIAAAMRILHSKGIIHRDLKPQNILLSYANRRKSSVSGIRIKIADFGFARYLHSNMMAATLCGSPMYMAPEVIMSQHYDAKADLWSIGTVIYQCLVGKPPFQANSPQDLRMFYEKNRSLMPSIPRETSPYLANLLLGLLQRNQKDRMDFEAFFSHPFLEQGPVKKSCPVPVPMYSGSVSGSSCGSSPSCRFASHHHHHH

| IC50 (ULK1 kinase) [nM] | IC50 [1] [nM] | IC50 (ULK2 kinase) [nM] | SMILES |
| --- | --- | --- | --- |
| 25 to 100 | 100 to 300 | 100 to 500 | CC(C)c1cc(N2CCN(C)CC2)ccc1Nc1ncc(Br)c(NCCCNC(=O)C2CCC2)n1 [Example 8] |
| 25 to 100 | 100 to 300 | 25 to 100 | COc1cc(N2CCN(C)CC2)ccc1Nc1ncc(C(F)(F)F)c(NCCCNC(=O)C2CCC2)n1 [Example 4] |
| 1 to 25 | 10 to 100 | 1 to 25 | CN1CCN(c2ccc(Nc3ncc(C(F)(F)F)c(NCCCNC(=O)C4CCC4)n3)c(C3CC3)c2)CC1 [Example 14] |
| 1 to 25 | 10 to 100 | 25 to 100 | CC(C)c1cc(N2CCN(C)CC2)ccc1Nc1ncc(C(F)(F)F)c(NCCCNC(=O)C2CCC2)n1 [Example 3] |
| – | 100 to 300 | 100 to 500 | Cc1cc(N2CCN(C)CC2)ccc1Nc1ncc(C(F)(F)F)c(NCCCNC(=O)C(C)(C)C)n1 [Example 12] |

From US11590134B2, “Aminopyrimidine amide autophagy inhibitors and methods of use thereof” (Deciphera Pharmaceuticals, LLC, priority 2019, dated 2023)
